Data on eleven molecules can be found in patent publication US12122750B2, “AT2R antagonists and uses thereof” (Eli Lilly and Company, priority 2022, dated 2024).

Series [1] concerns the target recombinant human angiotensin-II receptor subtype 2 (hAT2R) (Homo sapiens (Human), UniProt P50052). Nature of the series: Competitive radioligand binding assay (SPA), hAT2R HEK293 membranes. Particulars: [125I]-Tyr4-Angiotensin-II, read-out: AT2R Ki. The gist of the method:
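SPA competition binding on membranes from HEK293 cells stably transfected with hAT2R (0.25 μg/well, with 0.1 mg/well PVT-WGA beads) in 50 mM Tris-HCl pH 7.5, 150 mM NaCl, 0.1% fatty-acid-free BSA. Ten-point four-fold dilution curves ran from 50 μM top final concentration. Bound radioactivity was counted (CPM) after 10 h at room temperature.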

The target of series [2] is recombinant human angiotensin-II receptor subtype I (hAT1R) (Homo sapiens (Human), UniProt P30556). As to the kind of experiment: Competitive radioligand binding assay (SPA), hAT1R/CHO membranes. Particulars: [125I]-Tyr4-Angiotensin-II, read-out: AT1R Ki. Here is the method: Membranes hATIR/CHO were Purchased from PerkinElmer, Inc.
Cellular membranes prepared from Chinese hamster ovary (CHO) cells which expressed recombinant human angiotensin-II receptor subtype I (hAT1R), were purchased from PerkinElmer (Catalog Number ES-072-M400UA).
(§1) Receptor Binding Protocol
(§2) The assays were performed with a scintillation proximity assay (SPA) method using polyvinyltoluene (PVT) wheat germ agglutinin-coupled SPA beads (Perkin Elmer Cat. #RPNQ0001). Assay buffer containing BSA (50 mM Tris-HCl, pH 7.5, 150 mM NaCl, 0.1% w/v fatty-acid free BSA) was used for preparing radioligand, membrane and SPA bead reagent dilution to working stock concentrations. Reference control and test compounds were diluted to obtain ten-point concentration response curves using a four-fold serial dilution protocol onto assay plates, dispensed acoustically from DMSO stock using automated ECHO instrument technology (Labcyte, Inc.). Concentration response curves were routinely generated with the highest final assay concentration for the reference angiotensin-II control at 50 nM, and the highest final assay concentration for the test compounds at 50 μM. […] The hAT2R membrane was combined with PVT-WGA SPA beads to obtain a final assay concentration of 0.25 μg/well hAT2R membrane+0.1 mg/well PVT-WGA SPA bead. And the hAT1R membrane PVT-WGA SPA bead final concentrations was 0.5 μg/well hAT1R membrane+0.1 mg/well PVT-WGA SPA bead. […] For all assays, radioligand addition was followed by the addition of membrane-SPA bead mixture, i.e., the hAT2R membrane-SPA bead mixture (30 μL), the rAT2R membrane-SPA bead mixture, or the AT1R membrane-SPA bead mixture (30 μL) into the assay plate. All dispensing steps were added using a Multiflo FX (Biotek, Inc.) bulk dispensing instrument. After reagent addition steps, assay plates were sealed, and plate contents mixed for one minute on a benchtop micro-plate shaker. Following a 10-hour incubation at room temperature to allow for bead settling and radioligand binding, bound radioactivity was quantitated using a Microbeta Trilux scintillation counter (Perkin Elmer) and expressed as counts per minute (CPM). The unlabeled angiotensin-II control was included on each plate as an experimental assay reference.
(§3) Compounds were tested in a 10-point concentration response curve (CRC) format, with each plate containing the positive control angiotensin-II positive reference compound, and experimental compounds. Maximum binding response (Max) was determined in 32 control wells per plate using assay buffer treatment only, and the minimum binding controls or nonspecific binding response (Min) was also determined in 32 wells per plate by the treatment with 50 nM angiotensin-II. All test sample concentration responses were normalized to the control response and calculated as a percent of the maximal response after correcting for nonspecific binding as shown below: % Specific inhibition=100%−[(CPM−Min)/(Max−Min)×100%]
(§4) Percent specific binding (y-axis) was plotted versus the log concentration of compound (x-axis).
Binding affinities for compounds of the present disclosure were determined according to the assay described herein.
Binding affinities for compounds of the present disclosure were determined according to the assay described above.

Series [3] addresses T1, AT2R (Rattus norvegicus (Rat), UniProt P35351). Nature of the series: Inhibition of C21-induced increase in dermal blood flow (laser Doppler imaging). It counts as in vivo, Sprague Dawley rats.
Series [4] concerns the target T1, AT2R. As to the kind of experiment: AT2R ex vivo autoradiography receptor occupancy in rat adrenal sections after oral dosing. Further details: species or system Sprague Dawley rats. Particulars: for IC50 / IC80: plasma concentration plotted vs % receptor occupancy, rat; for receptor occupancy at 10 mg/kg: oral dose 10 mg/kg; for receptor occupancy at 30 mg/kg: oral dose 30 mg/kg; for receptor occupancy at 100 mg/kg: oral dose 100 mg/kg; for ex vivo IC50 (TER) / ex vivo IC80 (TER): rat receptor occupancy; for receptor occupancy at 3 mg/kg: oral dose 3 mg/kg. Here is the method:
The ability for a compound to engage its target may be measured by determining compound's receptor occupancy. An ex vivo autoradiography assay was conducted as described herein.
Twenty male Sprague Dawley rats (140-150 gms, Envigo) were maintained under controlled laboratory conditions on a 12 hr light cycle with ad lib access to food and water. […] Following a pre-determined survival time, plasma and adrenals were collected and frozen at −80° C. until analyzed. Frozen 20 μm sections of an adrenal from each animal were collected onto gelatin-coated slides and stored at −80° C. […] The specific ligand binding for each animal is calculated by subtracting the non-specific binding from the total bound.

Series [5] is described as follows: Plasma concentration of test compound in the receptor occupancy study. It counts as in vivo, Sprague Dawley rats. Particulars: rat. The procedure:
Twenty male Sprague Dawley rats (140-150 gms, Envigo) were maintained under controlled laboratory conditions on a 12 hr light cycle with ad lib access to food and water. On the morning of the experiment, rats were orally dosed with vehicle (1% (w/v) hydroxyethylcellulose, 0.25% (w/v) polysorbate 80, 0.05% (v/v) antifoam 1510-US in purified water) or appropriate doses of test compound (5 mL/kg, n=4 rats/group) using the same vehicle. Following a pre-determined survival time, plasma and adrenals were collected and frozen at −80° C. until analyzed. Frozen 20 μm sections of an adrenal from each animal were collected onto gelatin-coated slides and stored at −80° C. Autoradiography to detect AT2R occupancy (RO) was conducted under cold conditions using methods modified from F. M. J. Heemskerk, et al, Brain Research 677 (1995) 29-38. Total binding was defined by 0.3 nM ^125I-CGP42112 (selective AT2R agonist, Perkin Elmer, Inc) with the addition of 10 μM unlabeled AngII used to define non-specific binding. Following exposure to a phosphoimager plate (BAS TR2025, GE Healthcare), the bound radioactivity is calculated with use of MCID software (Imaging Research, Inc) and calibrated ^125I standards (American Radiolabeled Chemicals, Inc). The specific ligand binding for each animal is calculated by subtracting the non-specific binding from the total bound.

Another series addresses rAT2R (Rattus norvegicus (Rat), UniProt P35351). As to the kind of experiment: Rat binding affinity, competitive radioligand binding assay (SPA), rAT2R HEK293 membranes. Particulars: rat AT2R. Here is the method:
Membrane Preparation Protocol (hAT2R HEK293 and rAT2R HEK293)
as §1, §2, §3, §4

Sequence of recombinant human angiotensin-II receptor subtype 2 (hAT2R) (P50052 whole entry): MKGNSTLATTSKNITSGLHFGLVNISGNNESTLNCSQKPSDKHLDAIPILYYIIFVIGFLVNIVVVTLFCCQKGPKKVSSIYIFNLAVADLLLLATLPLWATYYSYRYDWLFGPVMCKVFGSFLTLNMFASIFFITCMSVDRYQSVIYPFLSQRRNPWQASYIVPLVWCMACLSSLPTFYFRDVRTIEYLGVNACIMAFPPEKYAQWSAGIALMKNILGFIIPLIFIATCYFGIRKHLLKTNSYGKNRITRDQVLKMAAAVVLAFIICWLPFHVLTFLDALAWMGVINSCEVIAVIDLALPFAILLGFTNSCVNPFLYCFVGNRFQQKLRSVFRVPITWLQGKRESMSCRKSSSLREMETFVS
T1 sequence (P35351 whole entry): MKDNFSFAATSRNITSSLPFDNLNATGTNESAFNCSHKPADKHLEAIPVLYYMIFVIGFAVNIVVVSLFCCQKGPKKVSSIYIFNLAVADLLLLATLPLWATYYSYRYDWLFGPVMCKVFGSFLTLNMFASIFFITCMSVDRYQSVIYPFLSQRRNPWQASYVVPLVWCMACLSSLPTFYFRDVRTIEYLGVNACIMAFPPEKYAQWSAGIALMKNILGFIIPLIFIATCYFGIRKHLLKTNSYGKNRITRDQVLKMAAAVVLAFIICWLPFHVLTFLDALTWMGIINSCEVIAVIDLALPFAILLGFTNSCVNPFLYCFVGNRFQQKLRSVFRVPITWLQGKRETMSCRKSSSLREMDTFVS
Sequence of rAT2R (P35351 whole entry): as above
Sequence of recombinant human angiotensin-II receptor subtype I (hAT1R) (P30556 whole entry): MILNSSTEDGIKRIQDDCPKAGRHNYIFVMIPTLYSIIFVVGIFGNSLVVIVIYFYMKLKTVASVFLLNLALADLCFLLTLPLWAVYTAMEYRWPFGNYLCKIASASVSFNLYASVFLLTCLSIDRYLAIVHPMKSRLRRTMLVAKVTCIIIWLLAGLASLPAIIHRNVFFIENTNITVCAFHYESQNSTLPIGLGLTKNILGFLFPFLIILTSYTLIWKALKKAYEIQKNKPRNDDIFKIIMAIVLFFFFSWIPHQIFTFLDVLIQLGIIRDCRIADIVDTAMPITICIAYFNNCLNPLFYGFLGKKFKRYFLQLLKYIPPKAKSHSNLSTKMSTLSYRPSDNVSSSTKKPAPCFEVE

As for `O=C(N1CCC(CC(=O)N(c2ccccc2)C2CCCC(F)(F)C2)(C(=O)O)CC1)N1CCc2ccccc21` (racemic) [Example 35, 4-[2-(N-(3,3-difluorocyclohexyl)anilino)-2-oxo-ethyl]-1-(indoline-1-carbonyl)piperidine-4-carboxylic acid], the figures for the inhibition constant Ki in series [1] and in series [2] were 2.79 nM and 37300 nM, respectively.
The like results for `N#Cc1ccc2c(c1)N(C(=O)N1CCC(CC(=O)N(c3ccccc3)C3CCCC(F)(F)C3)(C(=O)O)CC1)CC2` (racemic) [Example 47, 1-(6-cyanoindoline-1-carbonyl)-4-[2-(N-(3,3-difluorocyclohexyl)anilino)-2-oxo-ethyl]piperidine-4-carboxylic acid] were, in that order, 1.34 nM and 37300 nM.
Taken in the same sequence, the figures for `CN(C(=O)N1CCC(CC(=O)N(c2cccc(F)c2)C2CCCC(F)(F)C2)(C(=O)O)CC1)c1ccccc1` (racemic) [Example 53, 4-[2-(N-(3,3-difluorocyclohexyl)-3-fluoro-anilino)-2-oxo-ethyl]-1-[methyl(phenyl)carbamoyl]piperidine-4-carboxylic acid] were 0.342 nM and 37300 nM.
As for `O=C(CC1(C(=O)O)CCN(C(=O)C2(c3ccccc3F)CC2)CC1)N(c1ccccc1)C1CCCC(F)(F)C1` (racemic) [Example 66, 4-[2-(N-(3,3-difluorocyclohexyl)anilino)-2-oxo-ethyl]-1-[1-(2-fluorophenyl)cyclopropanecarbonyl]piperidine-4-carboxylic acid], the inhibitory constant (Ki) – broadly, the dissociation constant of the complex between target and ligand, obtained from inhibition or displacement – in series [1] amounted to 0.619 nM; in series [2] it was 37300 nM.
The like results for `CC(C)(C(=O)N1CCC(CC(=O)N(c2ccccc2)C2CCCC(F)(F)C2)(C(=O)O)CC1)c1ccccc1F` (racemic) [Example 67, 4-[2-(N-(3,3-difluorocyclohexyl)anilino)-2-oxo-ethyl]-1-[2-(2-fluorophenyl)-2-methyl-propanoyl]piperidine-4-carboxylic acid] were, in that order, 2.31 nM and 37300 nM.
As for `CN(C(=O)N1CCC(CC(=O)N(c2ccccc2)[C@H]2CCCC(F)(F)C2)(C(=O)O)CC1)c1ccc(F)cc1` (single isomer, unassigned) [44B (isomer 2)], the Ki in series [2] is 37300 nM.
For the molecule `O=C(N1CCC(CC(=O)N(c2ccccc2)C2CCCC(F)(F)C2)(C(=O)O)CC1)N1CCc2ccccc21` (single isomer, unassigned) [Example 35B, 4-[2-(N-(3,3-difluorocyclohexyl)anilino)-2-oxo-ethyl]-1-(indoline-1-carbonyl)piperidine-4-carboxylic acid], the Ki was found to be 1.03 nM in series [1] and 37300 nM in series [2].
With `COc1ccc2c(c1OCc1ccccc1)C[C@@H](C(=O)O)N(C(=O)C(c1ccccc1)c1ccccc1)C2` [EMA401, Olodanrigan, reference compound], the inhibition (usually how much of the control response was suppressed) at 1 mg/kg on AT2R [3] (dose 1 mg/kg, C21-induced increase in dermal blood flow) is 7.8%. This molecule showed an inhibition at 3 mg/kg on AT2R [3] (dose 3 mg/kg, C21-induced increase in dermal blood flow) of 47.2%. 10 mg/kg produced 67.6% inhibition against AT2R [3] (dose 10 mg/kg, C21-induced increase in dermal blood flow). Testing at 30 mg/kg on AT2R [3] (C21-induced increase in dermal blood flow) gave an inhibition of 86.9%. At 30 mg/kg the inhibition on AT2R [3] (second, unlabelled column under % Inhibition) was 97.3%. Moreover, on AT2R [4], the IC50 (commonly the midpoint of a concentration-inhibition curve) is 0.483 nM, the concentration for an effect of 80% (IC80) (usually the concentration needed for an effect of 80%) amounted to 3.03 nM, the “ex vivo IC50 (TER)” value came out at 0.108 TER and the “ex vivo IC80 (TER)” value is 0.678 TER. On AT2R [4] (rat adrenal, read-out: % RO), the receptor occupancy at 10 mg/kg was found to be 17.3%, the receptor occupancy at 30 mg/kg came out at 84.7% and the receptor occupancy at 100 mg/kg stood at 93.7%. Besides, the “[plasma, free, nM]” value in series [5] (oral dose 1 mg/kg) is 6.39 nM. In addition, the “[plasma, free, nM]” value in series [5] (oral dose 3 mg/kg) was 18.9 nM. The “[plasma, free, nM]” value in series [5] (oral dose 30 mg/kg) amounted to 6.28 nM. In series [5] (oral dose 100 mg/kg), the “[plasma, free, nM]” value stood at 15.7 nM. On rAT2R, the Ki was determined as 4.47 nM.
Turning to `CCCCCN(C)C(=O)N1CCC(CC(=O)N(c2ccccc2)c2ccccc2)(C(=O)O)CC1` [Example 1, 1-[methyl(pentyl)carbamoyl]-4-[2-oxo-2-(N-phenylanilino)ethyl]piperidine-4-carboxylic acid], on AT2R [4], the 50% inhibitory concentration (IC50) amounted to 5.64 nM, it took 22.6 nM to reach the 80% level (IC80), the “ex vivo IC50 (TER)” value is given as 0.200 TER and the “ex vivo IC80 (TER)” value came out at 0.800 TER. Besides, at AT2R [4] (rat adrenal, read-out: % RO), the receptor occupancy at 3 mg/kg came out at 23.4%, the receptor occupancy at 10 mg/kg is 44.6%, the receptor occupancy at 30 mg/kg is 41.6% and the receptor occupancy at 100 mg/kg was 54.6%. Also, the “[plasma, free, nM]” value in series [5] (oral dose 3 mg/kg) is given as 0.729 nM. Also, the “[plasma, free, nM]” value in series [5] (oral dose 10 mg/kg) was 2.25 nM. In addition, the “[plasma, free, nM]” value in series [5] (oral dose 30 mg/kg) was determined as 6.42 nM. The “[plasma, free, nM]” value in series [5] (oral dose 100 mg/kg) was 10.4 nM. At rAT2R, this molecule came in with an inhibitory constant (Ki) of 28.2 nM.
Regarding `CN(C(=O)N1CCC(CC(=O)N(c2ccccc2)c2ccccc2)(C(=O)O)CC1)c1ccc(F)cc1` [Example 2, 1-[(4-fluorophenyl)-methyl-carbamoyl]-4-[2-oxo-2-(N-phenylanilino)ethyl]piperidine-4-carboxylic acid], the Ki in series [2] turned out to be 37300 nM. In addition, the “[plasma, free, nM]” value in series [5] (oral dose 0.01 mg/kg) worked out at 0.0697 nM; in series [5] (oral dose 0.03 mg/kg) it was 0.0403 nM; in series [5] (oral dose 0.3 mg/kg), 0.153 nM; in series [5] (oral dose 3 mg/kg), 0.772 nM.
Take `CN(C(=O)N1CCC(CC(=O)N(c2ccccc2)c2ccc(F)cc2)(C(=O)O)CC1)c1ccc(F)cc1` [compound 30, 4-[2-(N-(4-fluorophenyl)anilino)-2-oxo-ethyl]-1-[(4-fluorophenyl)-methyl-carbamoyl]piperidine-4-carboxylic acid]: the receptor occupancy at 0.01 mg/kg on AT2R [4] (rat adrenal, oral dose 0.01 mg/kg, read-out: % RO) is 30.4%. Further, the receptor occupancy at 0.03 mg/kg on AT2R [4] (rat adrenal, oral dose 0.03 mg/kg, read-out: % RO) came out at 3.46%. In addition, the receptor occupancy at 0.3 mg/kg on AT2R [4] (rat adrenal, oral dose 0.3 mg/kg, read-out: % RO) came to 45.6%. For the same molecule, the receptor occupancy at 3 mg/kg at AT2R [4] (rat adrenal, read-out: % RO) turned out to be 88.7%. The molecule also gave a Ki at rAT2R of 0.6 nM.
